Experimental data: patent publication US12440493B2, “Combination therapy for treating cancer comprising substituted piperazines” (Eli Lilly and Company, priority 2020, dated 2025)
Values joined by “and” are separate entries in the source; they are usually repeats but may differ in a detail not shown here. Equal entries are not always repeated.

Key:
[1] = test system: IDH1(R132H) primary human AML cells; assay: AML clearance in peripheral blood (flow cytometry, % hCD33+hCD45+ of total white cells), human AML PDx models in NSG mice; format: in vivo; conditions: for AML clearance (% hCD33 + hCD45+ (of total white cells)): 50 mg/kg Midostaurin, QD, PO, each value one animal, 50 mg/kg; for % peripheral blood AML cells (treatment group value): group F: midostaurin (50 mg/kg)
Description: (§1) Compounds and Formulation. For in vivo studies, each test article is prepared at an appropriate concentration with vehicle. […] Compound A is prepared fresh at the appropriate concentrations with vehicle every 7 days and stored at 4° C. between doses. […] Cytarabine is prepared fresh weekly by dilution with sterile saline from stock solution of Cytarabine (injection 20 mg/mL, (Pfizer injectables')). Azacitidine (Sigma, Lot #MKBR7212) is formulated in sterile water and is prepared fresh daily immediately before dosing. In vivo human AML PDx models. […] Two models are used in the studies: […] As needed, splenocytes from tumor-bearing mice are used to propagate and expand the models, as described. Each test article is prepared as described above at an appropriate concentration with vehicle to give animals the doses tested in this study at a dosing volume of 10 μL/gram body weight. Mice receiving Compound A (PO, QD) are treated at the indicated doses for the duration of the study. The combination agents are dosed as follows: […] Treated mice are assessed in comparison to vehicle treated and naïve (non-tumor bearing) control mice. Body weight is recorded twice per week. […] AML PDx model propagation. […] Spleens are processed and splenocytes isolated as described below. Two hundred μL per subject of the splenocyte prep is injected IV (intravenous, tail vein) into recipient NSG mice. […] Once engraftment is confirmed, the mice are monitored biweekly until ready to be put on study. […] Submandibular blood is collected. Spleen/Splenocyte Processing and Prep. After excision, a spleen is weighed, and […] is placed in a standard sterile 15 mL polypropylene conical tube containing PBS, and placed on ice. […] The spleen is placed in ice cold sterile PBS in a 15 mL collection tube. The spleen is removed from the collection tube and placed in a 100 micron 50 mL conical tube cell strainer (BD Falcon #352360). The spleen is processed by gentle rubbing of the spleen tissue against the surface of the cell strainer with the end of a 5 mL syringe plunger in a circular motion. The surface of the strainer is rinsed with 10 mL room temperature sterile DPBS (HyClone SH30028) 3 times during the process. […] The cell pellet is collected by centrifugation (300×g) and washed three times with 30 mL sterile DPBS. The cells are counted and resuspended in DPBS at the desired implant concentration. Bone Marrow Collection. […] Flow cytometry analysis of human white cells. Submandibular blood samples from in vivo studies are collected. Fluor-conjugated antibody stains are added according to the manufacturer's instructions (anti-human CD33-PE (clone WM53, BD Cat #555450), anti-human CD14-APC (clone MφpP9, BD Cat #340436), anti-human CD15-V450 (clone HI98, BD Cat #561584), anti-human CD117-BV421 (clone YB5.B8, BD Cat #562434), anti-human […]7 (clone ICRF44, BD Cat #557754), anti-human […]7 (clone HI30, BD Cat #557748), and anti-human CD3-FITC (clone SK7, BD Cat #340542)). The samples are incubated for 30 minutes at room temperature, protected from light. After the incubation, 1.5 mL 1×BD Lyse/Fix (37° C., (BD #558049)) is added to each sample and incubated for 12 minutes at room temperature. The tubes are centrifuged at 300×g for 7 minutes. BD Lyse/Fix solution is aspirated and the cell pellet washed with stain/wash buffer 3 times (1 wash step consisted of: pellet resuspended in 3 mL stain/wash buffer, centrifuged at 300×g, aspirated wash). Fixed cells are then resuspended in 300 to 400 μL stain/wash buffer. Samples are analyzed on a Becton Dickinson FACSVerse Flow cytometer (Cat #651155 Serial #Z6511550447) using standard flow cytometry principles and techniques. Samples are analyzed on the same day as they are stained and fixed. Population gating and data analysis of percent population are performed in the FACSuite software on the FACSVerse cytometer. Percent population values from the data analysis are plotted in Graphpad Prism or in JMP13. […]

2-HG production = assay: Plasma 2-HG inhibition (LC-MS metabolite analysis in plasma of AML PDx model); format: in vivo, human
[2] = test system: IDH1(R132H) primary human AML cells; assay: Bone marrow AML clearance (flow cytometry), human AML PDx models in NSG mice; format: in vivo
Description: as §1

[3] = test system: IDH1(R132H) primary human AML cells; assay: AML cell differentiation in blood (flow cytometry, % hCD33+hCD11b+ of hCD45+ cells), human AML PDx models in NSG mice; format: in vivo; conditions: for AML cell differentiation (% hCD33 + hCD11b+ (of hCD45+ cells)): F: 50 mg/kg Midostaurin, QD, PO, one animal
Description: as §1

[4] = plasma, F: 50 mg/kg Midostaurin, QD, PO, one line per animal
[5] = 50 mg/kg Midostaurin, QD, PO, each line one animal

CO[C@@H]1[C@H](N(C)C(=O)c2ccccc2)C[C@H]2O[C@]1(C)n1c3ccccc3c3c4c(c5c6ccccc6n2c5c31)C(=O)NC4 [Midostaurin, reference compound]
AML clearance (% hCD33 + hCD45+ (of total white cells)) ([1]; Treatment day 7): 10.05% and 3.62% and 8.05% and 11.35% and 2.53% | AML clearance (% hCD33 + hCD45+ (of total white cells)) ([1]; Treatment day 23): 6.24% and 3.75% and 7.09% and 2.63% and 0.84% | AML clearance (% hCD33 + hCD45+ (of total white cells)) ([1]; Treatment day 36): 3.7% and 1.83% and 4.68% and 2.15% and 0.28% | AML clearance (% hCD33 + hCD45+ (of total white cells)) ([1]; Treatment day 50): 2.21% and 0.76% and 3.72% and 1.29% and 0.21% | AML clearance (% hCD33 + hCD45+ (of total white cells)) ([1]; Treatment day 64): 7.01% and 2.16% and 3.93% and 4.84% and 0.18% | AML clearance (% hCD33 + hCD45+ (of total white cells)) ([1]; Treatment day 78): 18.03% and 2.94% and 8.24% and 14.27% and 0.14% | AML clearance (% hCD33 + hCD45+ (of total white cells)) ([1]; Treatment day 92): 35.38% and 4.09% and 14.55% and 30.48% and 0.86% | AML clearance (% hCD33 + hCD45+ (of total white cells)) ([1]; Treatment day −8): 7.94% and 8.17% and 6.23% and 2.27% | % peripheral blood AML cells (treatment group value) ([1]; day 50, vehicle 32%): 1.1% | % peripheral blood AML cells (treatment group value) ([1]; day 64, vehicle 67%): 2.2% | % peripheral blood AML cells (treatment group value) ([1]; day 78, vehicle 129%): 3.9% | % plasma 2-HG (treatment group value) (2-HG production; group F: midostaurin (50 mg/kg), vehicle 100%): 70% | 2-HG (2-HG production; [4]): 14.919 µM and 11.402 µM and 7.494 µM and 21.55 µM and 10.075 µM | Naive Subtracted 2-HG (2-HG production; [4]): 12.51 µM and 8.993 µM and 5.085 µM and 19.141 µM and 7.666 µM | Bone Marrow AML Clearance: % hCD33 + hCD45+ (% of white cells) [2, 5]: 51.84% and 6.3% and 22.34% and 59.24% and 25.84% | Bone Marrow AML Clearance: % hCD45+ (% of white cells) [2, 5]: 51.3% and 6.25% and 22.22% and 58.42% and 25.71% | % human AML cells in bone marrow (of white cells; lower = more clearance) ([2]; group F: midostaurin (50 mg/kg), vehicle 86%): 26% | AML cell differentiation (% hCD33 + hCD11b+ (of hCD45+ cells)) ([3]; treatment day 7): 25.48% and 12.53% and 9% and 38.3% and 27.14% | AML cell differentiation (% hCD33 + hCD11b+ (of hCD45+ cells)) ([3]; treatment day 23): 25.27% and 17.13% and 9.1% and 36.3% and 25.56% | AML cell differentiation (% hCD33 + hCD11b+ (of hCD45+ cells)) ([3]; treatment day 36): 45.81% and 34.03% and 21.16% and 47.53% and 25.64% | AML cell differentiation (% hCD33 + hCD11b+ (of hCD45+ cells)) ([3]; treatment day 50): 43.86% and 28.75% and 20.78% and 40% and 30.3% | AML cell differentiation (% hCD33 + hCD11b+ (of hCD45+ cells)) ([3]; treatment day −8 (before treatment)): 19.58% and 13.81% and 18.12% and 19.57% | % AML cell differentiation (treatment group value) ([3]; day 50, group F: midostaurin (50 mg/kg), vehicle 28%): 33%
